Measured values taken from PubChem BioAssay AID1963964 (Molecular Pharmacology Branch, DTP, NCI, 2024).

Test system: 997726-040-R-J2-PDC tumor spheroids, viability
Experiment: Anticancer human tumor 997726-040-R-J2-PDC patient-derived squamous cell lung carcinoma cell line growth inhibition [PI3K]
Conditions: spheroids with HUVEC and MSC; for IC50: curve of first compound; for viability, T/C: stronger effect = lower value; active means viability on the fitted dose curve at most 10% of control; inactive means the rest
Summary of the method: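 Viability of mixed-cell spheroids was determined after exposure to pairwise combinations, one partner being inavolisib, alpelisib, duvelisib or copanlisib. Highest tested concentration matched clinical Cmax where known and 10 microM where not, descending in half-log steps.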
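Further: spheroids exposed to compounds for seven days before readout.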

CNC(=O)c1ccc(N2C(=S)N(c3ccc(C#N)c(C(F)(F)F)c3)C(=O)C2(C)C)cc1F + Cc1nc(NC(=O)N2CCCC2C(N)=O)sc1-c1ccnc(C(C)(C)C(F)(F)F)c1
inactive: viability, T/C (second compound 0.0316 µM, first compound 0.0316 µM) 74.4% | viability, T/C (second compound 0.0316 µM, first compound 0.1 µM) 82.2% | viability, T/C (second compound 0.0316 µM, first compound 0.316 µM) 80.9% | viability, T/C (second compound 0.0316 µM, first compound 1 µM) 89.3% | viability, T/C (second compound 0.0316 µM, first compound 3.16 µM) 81.9% | viability, T/C (second compound 0.0316 µM, first compound 10 µM) 78.8% | viability, T/C (second compound 0.1 µM, first compound 0.0316 µM) 74.5% | viability, T/C (second compound 0.1 µM, first compound 0.1 µM) 81.3% | viability, T/C (second compound 0.1 µM, first compound 0.316 µM) 73.5% | viability, T/C (second compound 0.1 µM, first compound 1 µM) 69.7% | viability, T/C (second compound 0.1 µM, first compound 3.16 µM) 70.5% | viability, T/C (second compound 0.1 µM, first compound 10 µM) 71.1% | viability, T/C (second compound 0.316 µM, first compound 0.0316 µM) 51.3% | viability, T/C (second compound 0.316 µM, first compound 0.1 µM) 65% | viability, T/C (second compound 0.316 µM, first compound 0.316 µM) 54.5% | viability, T/C (second compound 0.316 µM, first compound 1 µM) 57.9% | viability, T/C (second compound 0.316 µM, first compound 3.16 µM) 48.9% | viability, T/C (second compound 0.316 µM, first compound 10 µM) 54.6% | viability, T/C (second compound 1 µM, first compound 0.0316 µM) 41.7% | viability, T/C (second compound 1 µM, first compound 0.1 µM) 44.2% | viability, T/C (second compound 1 µM, first compound 0.316 µM) 37.5% | viability, T/C (second compound 1 µM, first compound 1 µM) 38.2% | viability, T/C (second compound 1 µM, first compound 3.16 µM) 39.9% | viability, T/C (second compound 1 µM, first compound 10 µM) 39% | viability, T/C (second compound 3.16 µM, first compound 0.0316 µM) 32.7% | viability, T/C (second compound 3.16 µM, first compound 0.1 µM) 29.3% | viability, T/C (second compound 3.16 µM, first compound 0.316 µM) 26.9% | viability, T/C (second compound 3.16 µM, first compound 1 µM) 29.5% | viability, T/C (second compound 3.16 µM, first compound 3.16 µM) 30.4% | viability, T/C (second compound 3.16 µM, first compound 10 µM) 25.5% | viability, T/C (second compound 10 µM, first compound 0.0316 µM) 16.1% | viability, T/C (second compound 10 µM, first compound 0.1 µM) 16.9% | viability, T/C (second compound 10 µM, first compound 0.316 µM) 12.6% | viability, T/C (second compound 10 µM, first compound 1 µM) 13.2% | viability, T/C (second compound 10 µM, first compound 3.16 µM) 11.9% | viability, T/C (second compound 10 µM, first compound 10 µM) 9.07%
< 31.6 nM: IC50 (second compound 1 µM) | IC50 (second compound 3.16 µM) | IC50 (second compound 10 µM)
> 10000 nM: IC50 (second compound 0.0316 µM) | IC50 (second compound 0.1 µM) | IC50 (second compound 0.316 µM)

Cn1cnc2c(F)c(Nc3ccc(Br)cc3Cl)c(C(=O)NOCCO)cc21 + Cc1nc(NC(=O)N2CCCC2C(N)=O)sc1-c1ccnc(C(C)(C)C(F)(F)F)c1
active: viability, T/C (second compound 10 µM, first compound 3 µM) 7.26%
inactive: viability, T/C (second compound 0.0316 µM, first compound 0.00949 µM) 74.8% | viability, T/C (second compound 0.0316 µM, first compound 0.03 µM) 58.5% | viability, T/C (second compound 0.0316 µM, first compound 0.0949 µM) 53.5% | viability, T/C (second compound 0.0316 µM, first compound 0.3 µM) 41.7% | viability, T/C (second compound 0.0316 µM, first compound 0.949 µM) 45.9% | viability, T/C (second compound 0.0316 µM, first compound 3 µM) 34.1% | viability, T/C (second compound 0.1 µM, first compound 0.00949 µM) 67.6% | viability, T/C (second compound 0.1 µM, first compound 0.03 µM) 56.1% | viability, T/C (second compound 0.1 µM, first compound 0.0949 µM) 44.9% | viability, T/C (second compound 0.1 µM, first compound 0.3 µM) 40.5% | viability, T/C (second compound 0.1 µM, first compound 0.949 µM) 38.7% | viability, T/C (second compound 0.1 µM, first compound 3 µM) 28.5% | viability, T/C (second compound 0.316 µM, first compound 0.00949 µM) 51.1% | viability, T/C (second compound 0.316 µM, first compound 0.03 µM) 40.6% | viability, T/C (second compound 0.316 µM, first compound 0.0949 µM) 35.7% | viability, T/C (second compound 0.316 µM, first compound 0.3 µM) 34.3% | viability, T/C (second compound 0.316 µM, first compound 0.949 µM) 28.4% | viability, T/C (second compound 0.316 µM, first compound 3 µM) 22.2% | viability, T/C (second compound 1 µM, first compound 0.00949 µM) 36.7% | viability, T/C (second compound 1 µM, first compound 0.03 µM) 32.6% | viability, T/C (second compound 1 µM, first compound 0.0949 µM) 29.4% | viability, T/C (second compound 1 µM, first compound 0.3 µM) 25.3% | viability, T/C (second compound 1 µM, first compound 0.949 µM) 22.7% | viability, T/C (second compound 1 µM, first compound 3 µM) 21.2% | viability, T/C (second compound 3.16 µM, first compound 0.00949 µM) 24.8% | viability, T/C (second compound 3.16 µM, first compound 0.03 µM) 21.2% | viability, T/C (second compound 3.16 µM, first compound 0.0949 µM) 22.2% | viability, T/C (second compound 3.16 µM, first compound 0.3 µM) 20.9% | viability, T/C (second compound 3.16 µM, first compound 0.949 µM) 20.7% | viability, T/C (second compound 3.16 µM, first compound 3 µM) 14.3% | viability, T/C (second compound 10 µM, first compound 0.00949 µM) 17.8% | viability, T/C (second compound 10 µM, first compound 0.03 µM) 17.2% | viability, T/C (second compound 10 µM, first compound 0.0949 µM) 15.5% | viability, T/C (second compound 10 µM, first compound 0.3 µM) 15.3% | viability, T/C (second compound 10 µM, first compound 0.949 µM) 12.2%
66.2 nM: IC50 (second compound 0.1 µM)
< 9.49 nM: IC50 (second compound 0.316 µM) | IC50 (second compound 1 µM) | IC50 (second compound 3.16 µM) | IC50 (second compound 10 µM)
129 nM: IC50 (second compound 0.0316 µM)
